Assay results taken from ChEMBL document CHEMBL2069170, “Geranylphenazinediol, an acetylcholinesterase inhibitor produced by a Streptomyces species” (J Nat Prod, 2012).
Active and inactive are the calls of the source. The calls are words filed in the database; no cut-off is given here.

Key:
[1] = Toxicity against human KIF5 cells incubated for 24 hrs by CellTiter Blue cell viability assay; type: cell-based
[2] = tested on: Bacillus subtilis; assay: Antimicrobial activity against Bacillus subtilis DSM 347 incubated for 5 hrs by resazurin dye based assay; type: functional, organism-based; details: DSM 347, 5 h
[3] = target: Acetylcholinesterase (Homo sapiens, UniProt P22303); assay: Inhibition of human AChE pre-incubated for 10 mins before acetylthiocholine iodide substrate addition
[4] = tested on: Candida albicans; assay: Antimicrobial activity against Candida albicans DSM 1386 incubated for 5 hrs by resazurin dye based assay; type: functional, organism-based
[5] = tested on: Xanthomonas campestris; assay: Antimicrobial activity against Xanthomonas campestris DSM 2405 incubated for 6 hrs by resazurin dye based assay; type: functional, organism-based

Sequence of Acetylcholinesterase (P22303 whole entry): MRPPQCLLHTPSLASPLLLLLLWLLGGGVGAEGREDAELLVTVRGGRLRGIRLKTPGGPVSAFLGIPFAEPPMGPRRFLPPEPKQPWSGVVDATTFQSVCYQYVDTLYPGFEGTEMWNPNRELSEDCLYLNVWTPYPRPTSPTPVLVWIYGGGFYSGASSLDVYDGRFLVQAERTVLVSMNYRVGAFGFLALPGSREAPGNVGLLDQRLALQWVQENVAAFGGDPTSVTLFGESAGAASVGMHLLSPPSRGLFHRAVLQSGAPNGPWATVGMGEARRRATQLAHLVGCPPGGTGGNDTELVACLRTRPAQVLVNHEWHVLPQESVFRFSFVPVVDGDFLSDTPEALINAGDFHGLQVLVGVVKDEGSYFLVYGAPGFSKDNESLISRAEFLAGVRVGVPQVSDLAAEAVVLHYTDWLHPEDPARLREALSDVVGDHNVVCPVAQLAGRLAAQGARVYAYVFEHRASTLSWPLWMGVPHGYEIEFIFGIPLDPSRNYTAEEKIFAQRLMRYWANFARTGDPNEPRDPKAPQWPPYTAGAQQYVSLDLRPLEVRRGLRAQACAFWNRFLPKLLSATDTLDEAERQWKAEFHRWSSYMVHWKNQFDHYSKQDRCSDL

Structure (SMILES): Oc1cccc2nc3c(O)cccc3nc12
- IC50 at 24 h [1]: > 50 µM
- IC50 [2]: 22 µM
- IC50 [3]: 4.52 µM

Structure (SMILES): CC(=O)Oc1cccc2nc3c(OC(C)=O)ccc(C/C=C(\C)CCC=C(C)C)c3nc12 [DIACETYLGERANYLPHENAZINEDIOL]
- IC50 at 24 h [1]: > 50 µM
- IC50 [2]: 13 µM
- Activity [4]: inactive
- IC50 [3]: 2.01 µM
- Activity [5]: inactive

Structure (SMILES): O=C(O)c1cccc2nc3ccccc3nc12 [PHENAZINE-1-CARBOXYLIC ACID]
- IC50 at 24 h [1]: > 50 µM
- IC50 [2]: > 150 µM
- IC50 [3]: > 50 µM

Structure (SMILES): O=C(N[C@H](CO)[C@H](O)c1ccc([N+](=O)[O-])cc1)C(Cl)Cl [CHLORAMPHENICOL]
- IC50 [2]: 1.45 µM

Structure (SMILES): CC(C)=CCC/C(C)=C/Cc1ccc(O)c2nc3cccc(O)c3nc12 [GERANYLPHENAZINEDIOL]
- IC50 at 24 h [1]: > 50 µM
- IC50 [2]: 24 µM
- Activity [4]: inactive
- IC50 [3]: 2.62 µM
- Activity [5]: inactive

Structure (SMILES): CC(C)=CCc1cccc2nc3cccc(C(=O)O)c3nc12 [ENDOPHENAZINE A]
- IC50 at 24 h [1]: > 10 µM
- IC50 [2]: 111 µM
- IC50 [3]: > 50 µM

Structure (SMILES): Oc1ccc2nc3ccccc3nc2c1
- IC50 at 24 h [1]: > 50 µM
- IC50 [2]: 75 µM
- IC50 [3]: > 50 µM

Structure (SMILES): CC/C(=C(\c1ccccc1)c1ccc(OCCN(C)C)cc1)c1ccccc1 [TAMOXIFEN]
- IC50 at 24 h [1]: 23.8 µM

Structure (SMILES): CC(C)=CCc1cc(=O)cc2n(C)c3cccc(C(=O)O)c3nc1-2 [ENDOPHENAZINE B]
- IC50 at 24 h [1]: > 50 µM
- IC50 [2]: > 150 µM
- IC50 [3]: > 50 µM
